We go through three compounds from patent publication EP0671915B1, “USE OF IDAZOXAN AND DERIVATIVES THEREOF IN PREPARING A DRUG FOR TREATING PARKINSON'S DISEASE AND ITS DEVELOPMENT” (PIERRE FABRE MEDICAMENT, priority 1992, dated 1994).

Each structure is given as a SMILES string.

The test system of test [1] is neurones dopaminergiques. As to the kind of experiment: Mouse model of DSP4 + MPTP induced degeneration: cortical noradrenaline and striatal dopamine levels. Type of test: in vivo, souris. Also noted: key to Taux de NA cortical / Taux de DA striatale: * à *** niveau de dégénérescence estimé par la diminution des taux de NA cortical et DA striatale; * à *** niveau de dégénérescence estimé par la diminution des taux de NA cortical et DA striatale; * à *** niveau de dégénérescence estimé par la diminution des taux de NA cortical et DA striatale. The conditions noted are these: for Taux de DA striatale / Taux de NA cortical: mice given DSP4 and MPTP, then treated, measured after end of treatment, symbol = level of degeneration.

For test [2] the following is noted: depression; 5 to 40 mg, 3 times a day for 4 weeks; versus placebo; cited from earlier work.
Test [3] relates to voie nigro-striée. As to the kind of experiment: Squirrel monkey MPTP model with noradrenergic lesion (protocol analogous to Mavridis et al.). The format is in vivo, singe écureuil. To be noted: behavioural, biochemical and histological results. The text has this:
L'emploi de l'idazoxan a également été étudié chez le singe écureuil selon un protocole analogue à celui de M. MAVRIDIS et al. Neuroscience 41,507 (1991).
Les résultats comportementaux, biochimiques et histologiques montrent qu'une lésion du système noradrénergique induit une dégénération de la voie nigrostriée après administration du MPTP.

A short description of test [4]: Clinical study in idiopathic Parkinson's disease patients versus 1-DOPA: motor symptoms. The format is in vivo. More on the design: key: 0 : pas de changements par rapport à avant le traitement; + a +++ amélioration; + a +++ amélioration; + a +++ amélioration. The conditions noted are these: oral, 4 weeks; for symptômes précoces, persistance de l'amélioration après traitement / symptômes précoces, pendant traitement: eye blinking; for symptômes précoces, persistance de l'amélioration après traitement / symptômes tardifs, persistance de l'amélioration après traitement: after end of treatment; for symptômes précoces, pendant traitement / symptômes tardifs, pendant traitement: during treatment; for symptômes tardifs, persistance de l'amélioration après traitement / symptômes tardifs, pendant traitement: hypokinesia. The procedure:
20 patients ont été sélectionnés répondant aux critères idiopathiques de la maladie de Parkinson et une étude a été menée contre la 1-DOPA.
Les administrations sont effectuées pendant 4 semaines par voie orale dans une gamme de dose de 500 mg à 4 g par jour pour la 1-DOPA, et pour l'Idazoxan d'une dose initiale de 3 fois 5 mg par jour croissant à un maximum de 3 fois 40 mg par jour, le clinicien déterminant la posologie exacte pour chaque patient.
L'efficacité des traitements a été mesurée sur les symptômes moteurs, du type tremblement d'action, d'intention, de repos, sur l'hypokinésie (symptômes tardifs) et le clignement des paupières (symptôme précoce de la maladie). Les observations ont été faites pendant le traitement et après arrêt du traitement pour mettre en évidence la persistance éventuelle de l'amélioration des symptômes.

Take `CN1CCc2cccc3c2[C@H]1Cc1ccc(O)c(O)c1-3` [G, apomorphine, reference compound]: in test [1], the “Taux de DA striatale” value was “***” and the “Taux de NA cortical” value was “*”.

Take `c1ccc2c(c1)OCC(C1=NCCN1)O2` (stereo not drawn) [idazoxan, 2-(2-(1,4-benzodioxanyl))-2-imidazoline]: in test [1], the “Taux de DA striatale” value is “*” and the “Taux de NA cortical” value was “*”. Besides, the “dégénérescence de neurones dopaminergiques provoquée par le DSP4 et la MPTP” value in test [1] (shown by slower fall of striatal dopamine compared with 1-DOPA (Groupe F) or apomorphine (Groupe G)) is reported as “ralentissement de la dégénérescence de neurones dopaminergiques”. Moreover, the “échelle de Hamilton” value in test [2] is listed as “amélioration significative”. In test [3], the “effet de la lésion de la voie nigro-striée” value was “diminue l'effet de la lésion de la voie nigro-striée et améliore l'évolution”. Also, in test [4], the “symptômes précoces, persistance de l'amélioration après traitement” value is “++”; the “symptômes précoces, pendant traitement” value is on record as “++”; the “symptômes tardifs, persistance de l'amélioration après traitement” value is given as “+”; the “symptômes tardifs, pendant traitement” value is “+”.

As to `N[C@@H](Cc1ccc(O)c(O)c1)C(=O)O` [1-DOPA, reference compound], in test [4], the “symptômes précoces, persistance de l'amélioration après traitement” value was 0; the “symptômes précoces, pendant traitement” value is listed as “+++”; the “symptômes tardifs, persistance de l'amélioration après traitement” value stood at 0; the “symptômes tardifs, pendant traitement” value was “+++”.
